Measurements as given in US12583851B2, “Heteroaryl-substituted pyrazine derivatives as pesticides” (Elanco Animal Health GmbH, priority 2019, dated 2026).

Legend:
Assay type in all cases: in vivo
[1] = system: adult mosquitoes Anopheles funestus strain FUMOZ-R; assay: Anopheles funestus test (ANPHFU surface treatment & contact assay); conditions: surface concentration 20 mg/m^2, 30 minutes exposure, 24 hours after contact, read-out: mortality (efficacy)
Method: Anopheles funestus Test (ANPHFU Surface Treatment & Contact Assay)
(§1) Solvent: Aceton+2000 ppm rapeseed oil methyl ester (RME)
(§2) In order to produce a sufficient, active ingredient containing solution it is necessary to solve the test compound in the solvent-mix (acetone at 2 mg/ml/RME 2000 ppm). This solution is pipetted onto a glazed tile and after evaporation of the acetone, adult mosquitoes of the species Anopheles funestus strain FUMOZ-R (Hunt et al., Med. Vet. Entomol. 2005 Sep. 19(3): 271-275) are placed onto the dried surface. The exposure time is 30 minutes.
(§3) Mortality in percent (%) is determined 24 hours after contact of the insects to the treated surface. 100% mortality means that all tested insects are dead, whereas 0% means that no insect died.

[2] = system: adult cat fleas (Ctenocephalides felis); assay: Ctenocephalides felis in-vitro contact test, adult cat flea; conditions: 5 μg/cm^2 (=500 g/ha), after 48 hours, read-out: efficacy (fleas dead or moribund)
How it was run: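 Acetone solution coated onto glass tube walls; 900 ppm gives 5 μg/cm². Once dry, 5–10 adult fleas per tube held at room temperature for 48 h. Efficacy (%) is the share of fleas dead or moribund, i.e. unable to climb away on a 45–50° C heating plate.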

[3] = system: larvae of the banded cucumber beetle (Diabrotica balteata); assay: Diabrotica balteata spray test; conditions: 168 h, after 7 days, read-out: efficacy (seedling growth); for pest or weed control at 6.4 µg/disc, 20 g/ha: 20 g/ha (=6.4 μg/well)
How it was run: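 Germinated wheat seedlings (5 per well, on agar) sprayed with compound in acetone/DMF with emulsifier-containing water, then infested with 10–20 Diabrotica balteata larvae. Efficacy (%) scored after 7 days from seedling growth: 100% = growth as untreated uninfested control, 0% = no seedlings grown.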

[4] = system: adult brown dog ticks (Rhipicephalus sanguineus); assay: Rhipicephalus sanguineus in-vitro contact test, adult brown dog ticks; conditions: 48 h, 5 μg/cm^2 (=500 g/ha), after 48 hours, read-out: efficacy (ticks dead or moribund)
How it was run: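 Acetone solution coated on glass tube inner walls (900 ppm, giving 5 μg/cm^2); after drying, 5–10 adult ticks added and kept 48 h at room temperature. Efficacy scored as percent dead or moribund, i.e., ticks unable to climb away on a 45–50 °C heating plate within 5 min.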

[5] = system: adult flies Musca domestica strain WHO-N; assay: Musca domestica test (MUSCDO surface treatment & contact assay); conditions: 24 hours after contact, read-out: mortality (efficacy); for mortality at 20 mg/m2: surface concentration 20 mg/m^2, 30 minutes exposure
Method: Musca domestica Test (MUSCDO Surface Treatment & Contact Assay)
as §1
as §2, with “flies” for “mosquitoes”, “Musca domestica” for “Anopheles funestus”, “WHO-N” for “FUMOZ-R (Hunt et al., Med. Vet. Entomol. 2005 Sep. 19(3): 271-275)”
as §3

[6] = system: brown planthopper (Nilaparvata lugens); assay: Nilaparvata lugens spray test; conditions: 96 h, 100 g/ha, rice plants, after 4 days
Method: Nilaparvata lugens—Spray Test
Solvent: 78.0 parts by weight of acetone • • 1.5 parts by weight of dimethylformamide
Emulsifier: alkylarylpolyglycol ether
To produce a suitable preparation of active compound, 1 part by weight of active compound is mixed with the stated amount of solvents and is diluted with water, containing an emulsifier concentration of 1000 ppm, to the desired concentration. Further test concentrations are prepared by dilution with emulsifier containing water.
Rice plants (Oryza sativa) are sprayed with a preparation of the active ingredient of the desired concentration and the plants are infested with the brown planthopper (Nilaparvata lugens).
After 4 days mortality in % is determined. 100% means all planthoppers have been killed and 0% means none of the planthoppers have been killed.

SMILES	mortality at 20 mg/m2 [1] [%]	pest or weed control at 5 µg/cm2, 500 g/ha [2] [%]	pest or weed control at 6.4 µg/disc, 20 g/ha [3] [%]	pest or weed control at 32 µg/disc, 100 g/ha ([3]; 100 g/ha (=32 μg/well)) [%]	pest or weed control at 5 µg/cm2, 500 g/ha [4] [%]	mortality at 20 mg/m2 [5] [%]	mortality at 100 g/ha [6] [%]	mortality at 4 mg/m2 ([5]; surface concentration 4 mg/m^2, 30 minutes exposure) [%]
CC(NC(=O)c1cc(Cl)cc(C(F)(F)F)c1)c1nccnc1-c1ncccn1 (racemic) [Example I-10, (rac)-3-Chloro-N-(1-(3-(pyrimidin-2-yl)pyrazin-2-yl)ethyl)-5-(trifluoromethyl)benzamide]	80 to 100	80	100	100	80	80 to 100	–	–
CC(NC(=O)c1cc(C(F)(F)F)cc(C(F)(F)F)c1)c1nccnc1-c1ncccn1 (racemic) [Example I-8, (rac)-N-(1-(3-(Pyrimidin-2-yl)pyrazin-2-yl)ethyl)-3,5-bis(trifluoromethyl)benzamide]	80 to 100	–	100	–	–	80 to 100	100	80 to 100
